In PubChem BioAssay (NCI):
“And” between values parts separate entries of the source, which are not always exact repeats. Identical values can stand only once.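 48-hour exposure; five concentrations; linearly interpolated endpoints. The concentration for 50% growth inhibition is given as GI50. TGI: concentration producing complete growth inhibition.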

tested on: SK-MEL-28 melanoma; test: growth of human tumour cells (NCI), 48 h

SMILES | TGI [µM] | GI50
O=C(Nc1nc(=S)[nH][nH]1)C(=O)C(C(=O)c1ccc2ccccc2c1)C1OC(=O)c2ccccc21 (stereo not drawn) | 49.1 | 
Cc1nc(-c2nc(C)c(C(=O)NNC(=O)C[n+]3ccccc3)s2)sc1C(=O)NNC(=O)C[n+]1ccccc1 | > 100 | 
CN(C)C=Nc1nc(=O)n(C2CCC(CO)O2)cc1F (stereo not drawn) | > 100 | 
O=c1[nH]c(-c2ccccc2)nc2cc(Cl)ccc12 | > 100 | 
CCOC(=O)C1Sc2ccccc2N=C1C (stereo not drawn) | > 100 | 
COCCn1cc(-c2nc(-c3cc4cccnc4[nH]3)cs2)c2cc(OC)ccc21 | > 100 | 5.21 µM
O=[N+]([O-])c1cc([N+](=O)[O-])c(C(F)(F)F)cc1NN=C(c1ccc(O)cc1)c1ccc(O)cc1 | 4.47 | 1.89 µM
NCCNCCNCCN | > 100 | > 100 µM
c1ccc(Nc2ncc(-c3ccccc3)o2)cc1 | > 25 | > 25 µM
COc1c2ccccc2c(OC)c2[nH]c(=O)ccc12 | 5.1 | 2.37 µM
O=C(O)C(Cl)Cl | > 10000 | 3150 µM and > 10000 µM
NC(=S)N/N=C\c1nccc2c(C(F)(F)F)cccc12 | 12.7 | 0.57 µM
CC(=O)N[C@@H](Cc1ccc(OP(=O)(O)O)cc1)C(=O)N[C@H]1CCC(=O)N2CCC[C@@H](C(=O)Nc3cccc4ccccc34)N2C1=O | > 25 | > 25 µM
CN1CCN(c2ccc(Nc3ncc(Cl)c(NC[C@@H]4CCCO4)n3)cc2)CC1 | 21.5 | 4.18 µM

tested on: SNB-75 CNS; test: growth of human tumour cells (NCI), 48 h

SMILES | TGI [µM] | GI50
O=C(Nc1nc(=S)[nH][nH]1)C(=O)C(C(=O)c1ccc2ccccc2c1)C1OC(=O)c2ccccc21 (stereo not drawn) | 63.1 | 
Cc1nc(-c2nc(C)c(C(=O)NNC(=O)C[n+]3ccccc3)s2)sc1C(=O)NNC(=O)C[n+]1ccccc1 | 84.3 | 
CN(C)C=Nc1nc(=O)n(C2CCC(CO)O2)cc1F (stereo not drawn) | > 100 | 
O=c1[nH]c(-c2ccccc2)nc2cc(Cl)ccc12 | > 100 | 
CCOC(=O)C1Sc2ccccc2N=C1C (stereo not drawn) | > 100 | 
COCCn1cc(-c2nc(-c3cc4cccnc4[nH]3)cs2)c2cc(OC)ccc21 | 5.83 | 1.22 µM
O=[N+]([O-])c1cc([N+](=O)[O-])c(C(F)(F)F)cc1NN=C(c1ccc(O)cc1)c1ccc(O)cc1 | 16.8 | 3.53 µM
NCCNCCNCCN | > 100 | > 100 µM
c1ccc(Nc2ncc(-c3ccccc3)o2)cc1 | > 25 | > 24.1 µM
COc1c2ccccc2c(OC)c2[nH]c(=O)ccc12 | > 21.9 | 3.2 µM
O=C(O)C(Cl)Cl | > 10000 | 3500 µM and > 10000 µM
NC(=S)N/N=C\c1nccc2c(C(F)(F)F)cccc12 | 16.7 | 0.284 µM
CC(=O)N[C@@H](Cc1ccc(OP(=O)(O)O)cc1)C(=O)N[C@H]1CCC(=O)N2CCC[C@@H](C(=O)Nc3cccc4ccccc34)N2C1=O | > 25 | > 19.8 µM
CN1CCN(c2ccc(Nc3ncc(Cl)c(NC[C@@H]4CCCO4)n3)cc2)CC1 | 4.72 | 1.14 µM

tested on: SNB-78 CNS; test: growth of human tumour cells (NCI), 48 h

SMILES | TGI [µM]
O=C(Nc1nc(=S)[nH][nH]1)C(=O)C(C(=O)c1ccc2ccccc2c1)C1OC(=O)c2ccccc21 (stereo not drawn) | > 100
Cc1nc(-c2nc(C)c(C(=O)NNC(=O)C[n+]3ccccc3)s2)sc1C(=O)NNC(=O)C[n+]1ccccc1 | > 100
CN(C)C=Nc1nc(=O)n(C2CCC(CO)O2)cc1F (stereo not drawn) | > 100
O=c1[nH]c(-c2ccccc2)nc2cc(Cl)ccc12 | > 100
CCOC(=O)C1Sc2ccccc2N=C1C (stereo not drawn) | > 100

tested on: SR leukemia; test: growth of human tumour cells (NCI), 48 h

SMILES | TGI [µM] | GI50 [µM]
CCOC(=O)C1Sc2ccccc2N=C1C (stereo not drawn) | > 100 | 
COCCn1cc(-c2nc(-c3cc4cccnc4[nH]3)cs2)c2cc(OC)ccc21 | > 29.7 | 1.21
O=[N+]([O-])c1cc([N+](=O)[O-])c(C(F)(F)F)cc1NN=C(c1ccc(O)cc1)c1ccc(O)cc1 | 6.42 | 1.55
NCCNCCNCCN | > 100 | > 100
c1ccc(Nc2ncc(-c3ccccc3)o2)cc1 | > 25 | > 20.6
COc1c2ccccc2c(OC)c2[nH]c(=O)ccc12 | > 100 | 6.61
O=C(O)C(Cl)Cl | > 10000 | > 10000
NC(=S)N/N=C\c1nccc2c(C(F)(F)F)cccc12 | > 37 | 0.0997
CC(=O)N[C@@H](Cc1ccc(OP(=O)(O)O)cc1)C(=O)N[C@H]1CCC(=O)N2CCC[C@@H](C(=O)Nc3cccc4ccccc34)N2C1=O | > 25 | > 25
CN1CCN(c2ccc(Nc3ncc(Cl)c(NC[C@@H]4CCCO4)n3)cc2)CC1 | 6.03 | 0.513

tested on: TK-10 renal; test: growth of human tumour cells (NCI), 48 h

SMILES | TGI [µM] | GI50 [µM]
O=C(Nc1nc(=S)[nH][nH]1)C(=O)C(C(=O)c1ccc2ccccc2c1)C1OC(=O)c2ccccc21 (stereo not drawn) | 80.3 | 
Cc1nc(-c2nc(C)c(C(=O)NNC(=O)C[n+]3ccccc3)s2)sc1C(=O)NNC(=O)C[n+]1ccccc1 | > 100 | 
CN(C)C=Nc1nc(=O)n(C2CCC(CO)O2)cc1F (stereo not drawn) | > 100 | 
O=c1[nH]c(-c2ccccc2)nc2cc(Cl)ccc12 | > 100 | 
CCOC(=O)C1Sc2ccccc2N=C1C (stereo not drawn) | > 100 | 
COCCn1cc(-c2nc(-c3cc4cccnc4[nH]3)cs2)c2cc(OC)ccc21 | 10.7 | 1.07
O=[N+]([O-])c1cc([N+](=O)[O-])c(C(F)(F)F)cc1NN=C(c1ccc(O)cc1)c1ccc(O)cc1 | 33.4 | 6.06
NCCNCCNCCN | > 100 | > 100
c1ccc(Nc2ncc(-c3ccccc3)o2)cc1 | > 25 | > 25
COc1c2ccccc2c(OC)c2[nH]c(=O)ccc12 | > 100 | 51.2
O=C(O)C(Cl)Cl | > 10000 | > 10000
NC(=S)N/N=C\c1nccc2c(C(F)(F)F)cccc12 | 32.1 | 0.516
CC(=O)N[C@@H](Cc1ccc(OP(=O)(O)O)cc1)C(=O)N[C@H]1CCC(=O)N2CCC[C@@H](C(=O)Nc3cccc4ccccc34)N2C1=O | > 25 | > 25
CN1CCN(c2ccc(Nc3ncc(Cl)c(NC[C@@H]4CCCO4)n3)cc2)CC1 | 8.39 | 1.75
